In the supplement of paper PMC4862054:

Experiments:
Conditions in all cases: incubation time: 72 h
BT-474 [1] = test: normalised response (% of control), CellTox Green; higher = less cell death (100 = DMSO, 0 = benzethonium chloride kill control)
In short: (§1)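 Plates were normalised with 0.1 % DMSO as 100 and a positive kill control as 0. Breast cancer cell lines in 20 µl suspension had been seeded into 384-well plates with compound at 5 concentrations in 10-fold steps over a compound-specific 10,000-fold range, incubated 72 h, and read for CellTox Green fluorescence (485/520 nm) followed by CellTiter-Glo luminescence. Each value is the normalised signal at a single concentration.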

BT-549 [2] = test: as above
In short: as §1

CAL-120 [3] = test: as above
In short: as §1

CAL-148 [4] = test: as above
In short: as §1

CAL-51 [5] = test: as above
In short: as §1

CAL-85-1 [6] = test: as above
In short: as §1

DU-4475 [7] = test: as above
In short: as §1

HCC1143 [8] = test: as above
In short: as §1

HCC1599 [9] = test: as above
In short: as §1

HCC1937 [10] = test: as above
In short: as §1

HDQ-P1 [11] = test: as above
In short: as §1

Hs578T [12] = test: as above
In short: as §1

MCF-10A [13] = test: as above
In short: as §1

MDA-MB-231 [14] = test: as above
In short: as §1

MDA-MB-436 [15] = test: as above
In short: as §1

MDA-MB-453 [16] = test: as above
In short: as §1

MDA-MB-468 [17] = test: as above
In short: as §1

MFM-223 [18] = test: as above
In short: as §1

BT-474 [19] = test: normalised response (% of control), CellTiter-Glo; higher = more viable cells (100 = DMSO, 0 = benzethonium chloride kill control)
In short: as §1

BT-549 [20] = test: as above
In short: as §1

CAL-120 [21] = test: as above
In short: as §1

CAL-148 [22] = test: as above
In short: as §1

CAL-51 [23] = test: as above
In short: as §1

CAL-85-1 [24] = test: as above
In short: as §1

DU-4475 [25] = test: as above
In short: as §1

HCC1143 [26] = test: as above
In short: as §1

HCC1599 [27] = test: as above
In short: as §1

HCC1937 [28] = test: as above
In short: as §1

HDQ-P1 [29] = test: as above
In short: as §1

Hs578T [30] = test: as above
In short: as §1

MCF-10A [31] = test: as above
In short: as §1

MDA-MB-231 [32] = test: as above
In short: as §1

MDA-MB-436 [33] = test: as above
In short: as §1

MDA-MB-453 [34] = test: as above
In short: as §1

MDA-MB-468 [35] = test: as above
In short: as §1

MFM-223 [36] = test: as above
In short: as §1

SK-BR-3 = test: as above
In short: as §1

SMILES | normalised response (BT-474 [1]) | normalised response (BT-549 [2]) | normalised response (CAL-120 [3]) | normalised response (CAL-148 [4]) | normalised response (CAL-51 [5]) | normalised response (CAL-85-1 [6]) | normalised response (DU-4475 [7]) | normalised response (HCC1143 [8]) | normalised response (HCC1599 [9]) | normalised response (HCC1937 [10]) | normalised response (HDQ-P1 [11]) | normalised response (Hs578T [12]) | normalised response (MCF-10A [13]) | normalised response (MDA-MB-231 [14]) | normalised response (MDA-MB-436 [15]) | normalised response (MDA-MB-453 [16]) | normalised response (MDA-MB-468 [17]) | normalised response (MFM-223 [18]) | normalised response (BT-474 [19]) | normalised response (BT-549 [20]) | normalised response (CAL-120 [21]) | normalised response (CAL-148 [22]) | normalised response (CAL-51 [23]) | normalised response (CAL-85-1 [24]) | normalised response (DU-4475 [25]) | normalised response (HCC1143 [26]) | normalised response (HCC1599 [27]) | normalised response (HCC1937 [28]) | normalised response (HDQ-P1 [29]) | normalised response (Hs578T [30]) | normalised response (MCF-10A [31]) | normalised response (MDA-MB-231 [32]) | normalised response (MDA-MB-436 [33]) | normalised response (MDA-MB-453 [34]) | normalised response (MDA-MB-468 [35]) | normalised response (MFM-223 [36]) | normalised response (SK-BR-3)
CO[C@H](C(=O)[C@@H](O)[C@@H](C)O)[C@@H]1Cc2cc3cc(O[C@H]4C[C@@H](O[C@@H]5C[C@@H](O)[C@H](O)[C@@H](C)O5)[C@H](O)[C@@H](C)O4)c(C)c(O)c3c(O)c2C(=O)[C@H]1O[C@H]1C[C@@H](O[C@@H]2C[C@@H](O)[C@@H](O[C@@H]3C[C@](C)(O)[C@H](O)[C@@H](C)O3)[C@@H](C)O2)[C@H](O)[C@@H](C)O1 [Plicamycin] (100 nM) | 99.4% | 98.7% | 102% | 107% | 85.5% | 99% | 102% | 101% | 106% | 119% | 94.3% | 86% | 93.4% | 109% | 96.8% | 105% | 131% | 100% | 100% | 103% | 103% | 112% | 66.4% | 100% | 105% | 104% | 99.4% | 98% | 99.5% | 104% | 108% | 104% | 103% | 114% | 105% | 103% | 102%
Cn1nnc2c(C(N)=O)ncn2c1=O [Temozolomide] (100 nM) | 97.8% | 101% | 99.2% | 100% | 108% | 107% | 101% | 96.3% | 89.7% | 82.5% | 81.8% | 89.4% | 89.1% | 110% | 104% | 105% | 92.8% | 102% | 95.4% | 106% | 99.7% | 98.8% | 107% | 93.6% | 96.8% | 101% | 90.9% | 88.2% | 93.2% | 103% | 103% | 101% | 98.8% | 102% | 100% | 104% | 96.5%
CC(C)C[C@H](NC(=O)[C@H](CCc1ccccc1)NC(=O)CN1CCOCC1)C(=O)N[C@@H](Cc1ccccc1)C(=O)N[C@@H](CC(C)C)C(=O)[C@@]1(C)CO1 [Carfilzomib] (10 nM) | 87.4% | 81.9% | 91.2% | 78.6% | 35.9% | 43.5% | 100% | 90.5% | 111% | 48.8% | 96.5% | 69.9% | 100% | 51.9% | 48.3% | 84.6% | -51.7% | 66.1% | 70.3% | 6.23% | 91.6% | 104% | 60.5% | 37.6% | 102% | 44.4% | 104% | 77% | 83.5% | 63.5% | 119% | 78.8% | 23.4% | 40.7% | 0.56% | 8.07% | 19.1%
NC(=O)NO [Hydroxyurea] (1000 nM) | 101% | 105% | 101% | 78.8% | 78.6% | 115% | 102% | 67.2% | 99.6% | 109% | 99.4% | 101% | 108% | 111% | 101% | 96.4% | 103% | 89.5% | 92.1% | 105% | 102% | 104% | 61.3% | 110% | 99.6% | 105% | 97.1% | 97.6% | 95.2% | 101% | 99.2% | 100% | 98.5% | 109% | 102% | 105% | 103%
CC(C)n1nc(-c2ccc3oc(N)nc3c2)c2c(N)ncnc21 [INK128] (10 nM) | 76.1% | 83.9% | 100% | 96.6% | 99.6% | 99.9% | 96.8% | 60.6% | 95% | 91.2% | 78.1% | 108% | 108% | 99.5% | 94.7% | 99.3% | 104% | 99.9% | 78.9% | 74.7% | 82.4% | 81.7% | 76.8% | 81.4% | 86.8% | 85.8% | 100% | 82.9% | 75% | 85% | 89.1% | 81.8% | 79.1% | 73.8% | 81.2% | 70.6% | 55.6%
CC[C@H](CC#N)OC(=O)N[C@@H](C)c1cccc(NC(=O)Nc2ccc(-c3cnco3)c(OC)c2)c1 [AVN944] (100 nM) | 73.6% | 102% | 97.7% | 95.8% | 95% | 95.9% | 97.8% | 76.5% | 93.2% | 83% | 83.5% | 98.7% | 67.8% | 85.2% | 90.8% | 70.8% | 73.7% | 93.5% | 86.2% | 67.8% | 93.8% | 94.8% | 83.9% | 81.9% | 97.1% | 92.2% | 82.8% | 90.2% | 85.8% | 111% | 91.9% | 91.3% | 80.1% | 98.2% | 59.9% | 98.2% | 96%
COc1cc2c(Oc3ccc(NC(=O)C4(C(=O)Nc5ccc(F)cc5)CC4)cc3F)ccnc2cc1OCCCN1CCOCC1 [Foretinib] (10 nM) | 86.5% | 95.3% | 91.5% | 105% | 109% | 107% | 102% | 104% | 102% | 97.2% | 76.9% | 104% | 107% | 102% | 79.1% | 84.9% | 139% | 97.2% | 102% | 105% | 102% | 105% | 119% | 100% | 103% | 99.6% | 112% | 94.7% | 96.8% | 99.2% | 99.5% | 97.7% | 104% | 107% | 104% | 103% | 104%
CCc1c(C(=O)C(N)=O)c2c(OCC(=O)O)cccc2n1Cc1ccccc1 [Varespladib] (100 nM) | 104% | 99.1% | 102% | 102% | 96.8% | 99.3% | 104% | 92.1% | 97% | 83.1% | 96% | 99.9% | 112% | 104% | 106% | 105% | 88.9% | 91.1% | 98% | 100% | 111% | 103% | 95.6% | 98.5% | 98.8% | 103% | 95.9% | 102% | 101% | 104% | 105% | 103% | 98.5% | 97% | 95.3% | 102% | 101%
